Key:
[1] = test system: GD3-KLH and MUC1-KLH conjugates; conditions: mouse; cited from earlier work
monoclonal antibody F12 = assay: Binding to monoclonal antibody F12 (ELISA, immune thin layer chromatography, inhibition)
Excerpt: In yet another example, a fucosyl GM1-KLH glycoconjugate is generated according to the method of the present invention, as discussed in Example 1. […] Clearly, the synthetic fucosyl GM1 pentenyl glycoside provides the antigenic epitope with which F12 reacts on SCLC cells.

binding to monoclonal antibody F12 (monoclonal antibody F12; ELISA and immune thin layer chromatography assays, prior to conjugation) | inhibition of reactivity of natural fucosyl GM1 with F12 (monoclonal antibody F12; preincubation of F12) | Substance | augmentation of antibody responses compared to the conjugates alone [1]
– | – | QS-21 | 1000-100,000 fold
shown to bind | completely inhibits | fucosyl GM1 pentenyl glycoside [n-pentenyl fucosyl GM1] | –
